Experimental findings from ChEMBL document CHEMBL6071126, “Recent advances in the chemistry and biology of oleanolic acid and its derivatives” (Eur J Med Chem, 2024) are described below.

Data set [1] has as its system HepG2. Description: Antiproliferative activity against human HepG2 cells assessed as reduction in cell growth incubated for 72 hrs by MTT assay. Type of data set: functional, cell-based. Particulars: HepG2, 72 h. A general note: Tetrazolium assays rely on reduction of a dye to a coloured formazan, in cell work by metabolically active cells.
Another data set concerns HeLa. Description: Cytotoxicity against human HeLa cells assessed as reduction in cell viability incubated for 48 hrs by MTT assay. The class given is functional, cell-based.
The nature of data set [2]: Potency index, ratio of OA IC50 to test compound IC50 for anti-inflammatory activity in LPS-induced mouse BV-2 cells assessed as inhibition of NO production. The class given is functional.
Data set [3] can be described thus: Inhibition of Clostridium histolyticum Collagenase using DQ gelatin as substrate measured after 30 mins by fluorescence based microplate reader analysis. The arrangement: species or system Hathewaya histolytica.
A further data set deals with Hathewaya histolytica. Description: Inhibition of Clostridium histolyticum Collagenase at 250 ug/ml relative to control. The conditions noted are these: dose 250.0 µg/ml.
Another data set has as its target Alpha glucosidase (Homo sapiens, UniProt O43451+P10253+P14410+Q2M2H8). Description: Inhibition of Alpha glucosidase (unknown origin). Type of data set: protein assay.
The test system of a further data set is BGC-823. Put plainly: Cytotoxicity against human BGC-823 cells assessed as reduction in cell viability incubated for 72 hrs by MTT assay. The class given is functional, cell-based. Particulars: BGC-823, 72 h.
Another data set relates to PC-3. Description: Cytotoxicity against human PC-3 cells assessed as reduction in cell viability incubated for 72 hrs by MTT assay. Type of data set: functional, cell-based. Particulars: PC-3, 72 h.
A further data set has as its system MCF7. Description: Cytotoxicity against human MCF7 cells assessed as reduction in cell viability incubated for 72 hrs by MTT assay. Particulars: MCF7, 72 h.
Data set [4] relates to HepG2. Description: Cytotoxicity against human HepG2 cells assessed as reduction in cell viability incubated for 72 hrs by MTT assay. Particulars: HepG2, 72 h.
A further data set concerns A549. Put plainly: Cytotoxicity against human A549 cells assessed as reduction in cell viability incubated for 72 hrs by MTT assay. Particulars: A549, 72 h.
Data set [5] in a line: Aqueous solubility of compound. Type of data set: physicochemical.
Data set [6] is described as follows: Apparent permeability across apical to basolateral side in human Caco-2 cells at 10 uM incubated for 90 mins at pH 7.4 by LC/MS analysis. The class given is ADME, cell-based. The conditions noted are these: Caco-2, pH 7.4.
A short description of data set [7]: Oral bioavailability in rat. Type of data set: ADME, organism-based. Particulars: in vivo.

In brackets after ≈: the same amount, converted by molar mass. Some results are limits rather than exact numbers.

Consider `CON(C[C@]12CCC(C)(C)CC1C1=CCC3[C@@]4(C)CC[C@H](O)C(C)(C)C4CC[C@@]3(C)[C@]1(C)CC2)[C@@H]1O[C@H](CO)[C@@H](O)[C@H](O)[C@H]1O` (stereo partly specified), for which the IC50 in the data set on HepG2 [1] came to 2.1 µM.
Turning to `Cc1ccccc1COC(=O)[C@]12CCC(C)(C)CC1C1=CCC3[C@@]4(C)CC[C@H](OC(=O)/C=C/c5ccc([N+](=O)[O-])cc5)C(C)(C)C4CC[C@@]3(C)[C@]1(C)CC2` (stereo partly specified), in the data set with HeLa, the IC50 worked out at 1.35 µM.
For the molecule `COC(=O)[C@]12CCC(C)(C)CC1C1=CC(=O)C3[C@@]4(C)Cc5c([nH]c6ccc(C#N)cc56)C(C)(C)C4CC[C@@]3(C)[C@]1(C)CC2` (stereo partly specified), in data set [2], the “Ratio IC50” value came out at 1.93.
`CC(C)[C@H](NC(=O)[C@H](CCCCN)NC(=O)[C@]12CCC(C)(C)CC1C1=CCC3[C@@]4(C)CC[C@H](O)C(C)(C)C4CC[C@@]3(C)[C@]1(C)CC2)C(=O)N[C@@H](CCCCN)C(=O)O` (stereo partly specified) yielded an IC50 in data set [3] of 48.8 µg/mL (≈ 60.1 µM). For the same molecule, the inhibition in the data set with Hathewaya histolytica is 100%.
Consider `CC1(C)CC[C@]2(C(=O)C(=O)O)CC[C@]3(C)C(=CCC4[C@@]5(C)Cc6cnn(-c7ccc(Cl)cc7)c6C(C)(C)C5CC[C@]43C)C2C1` (stereo partly specified), for which the IC50 against Alpha glucosidase was found to be 2.64 µM.
Consider `COC(=O)[C@]12CCC(C)(C)CC1C1=CC(=O)C3[C@@]4(C)Cc5c([nH]c6cc(F)cc(F)c56)C(C)(C)C4CC[C@@]3(C)[C@]1(C)CC2` (stereo partly specified), for which, in data set [2], the “Ratio IC50” value is on record as 2.41.
Turning to `CC1(C)CC[C@]2(C(=O)OCc3ccccc3Cl)CC[C@]3(C)C(=CCC4[C@@]5(C)CC[C@H](O)C(C)(C)C5CC[C@]43C)C2C1` (stereo partly specified), in the data set with HeLa, the IC50 is 1.55 µM.
In the case of `O=c1[nH]cc(F)c(=O)[nH]1` [FLUOROURACIL], the half-inhibitory concentration (IC50) in the data set on BGC-823, in the data set with PC-3, with MCF7, with HepG2 [4] and in the data set with A549 was under 1 µM in each case.
Molecule `CC1(C)CC[C@]2(C(=O)O)CC[C@]3(C)C(=CC[C@@H]4[C@@]5(C)CC[C@H](O)C(C)(C)[C@@H]5CC[C@]43C)[C@@H]2C1` [OLEANOLIC_ACID] had a solubility in data set [5] of under 1 µg/mL. The Papp A→B at 1.5 h, 10 µM in data set [6] was determined as 1.1 ×10⁻⁶ cm/s. The bioavailability in [7] is 0.7%.

By IC50 is commonly meant the concentration that inhibits the measured activity by half. As a reminder, the inhibition is the relative decrease from the control value, in per cent. A low value points to little suppression. One may read the solubility as how much of the substance goes into solution per volume. Lower therefore signals little dissolved substance. As a reminder, the Papp A→B is how fast a substance crosses the layer from the apical side. A word on the bioavailability: it is dose-corrected exposure relative to a reference, in per cent.
